# Results taken from patent publication US7145032B2, “Therapeutic malonic acid/acetic acid C60 tri-adducts of buckminsterfullerene and methods related thereto” (priority 2002, dated 2006).
# Tests used:
# monkeys = conditions: one monkey; mean survival 25 months; cited from earlier work
# [1] = Reactivity of C3 with superoxide; format: biochemical; conditions: calculated
# Excerpt: Because many important biological reactions generate reactive oxygen species intentionally, or as unwanted toxic by-products, antioxidant molecules capable of supplementing the antioxidant defenses of cells as potential therapeutic agents are therapeutically useful. […] These novel carboxyfullerene compositions have antioxidant properties.
# C57B6 mice [2] = format: in vivo; conditions: oral C3 from 12 months of age to end of life, versus control
# Description: The date of spontaneous death for each mouse was recorded, and used to calculate the lifespan. Lifespan of each mouse was calculated in months because mice received from the NIA rodent colony have their birth month, but not their specific birth date, recorded. Average survival was calculated for each treatment and the mean lifespans were compared using a t-test with significance set to p<0.05 (actual p=0.033).
# Twelve month old C57B6NIH male and female mice (equal numbers) were purchased from the National Institute on Aging (NIA) Aging Rodent Colony. Mice shipped from this colony were not selected in any way for health, tumors or other disabilities, and all mice obtained from the colony were subsequently enrolled in the study. […]
# Solution A or solution B was placed in the water bottles, and solutions were topped-off twice weekly, and filtered to remove any particulates biweekly by an individual blind to the identity of the solutions. […] Mice were allowed to die spontaneously, and their date of death were recorded by the Animal Housing Facility staff as part of the normal operating procedure of the facility. […] When animals died, the cage number, identity of the animal, and the date of death were recorded on the death notice, which was then sent to the laboratory, where the information was entered into the database.
# [3] = Plasma pharmacokinetics and tissue distribution in mice
# Excerpt: The above dosing information is based on a pharmokinetics study carried out in mice, toxicity testing in mice and toxicity testing in rats.
# Solubility = format: physicochemical
# Excerpt: The progress of the reaction was monitored by HPLC (Protocol 2).
# [4] = Thermal stability in 1:1 acetonitrile:water at 60°; format: physicochemical; conditions: for Hexa, percent of injected compound (HPLC): 60° C.
# Excerpt: The composition was monitored by HPLC, using protocols 2 and 4 (see Table 1).
# [5] = Hydration of freeze dried sodium salt; format: physicochemical; conditions: dry weight divided by expected weight for complete neutralization; freeze dried 4 days
# rats = conditions: treatment from age 96 weeks to end of life; control 147+/−1; cited from earlier work
# Fisher 344 rats [6] = conditions: cited from earlier work
# Fisher 344 rats [7] = conditions: same dose of deprenyl; cited from earlier work
# C57B6 mice [8] = conditions: chronic treatment starting at 18 months of age; cited from earlier work
# Drosophila = conditions: controlled study; cited from earlier work
compound,measurement,setting,value
O=CC[C@@H](O)[C@H](O)[C@H](O)CO [2-deoxyglucose],survival of a treated monkey,monkeys,38 months
"e,e,e tris malonic acid C60 [Compound C3]",rate constant of C3 reaction with superoxide,[1],3e+06 M⁻¹ s⁻¹
same,increase in the lifespan,C57B6 mice [2],approximately 20%
same,route of clearance,[3],excretion through both the liver and kidney
same,tissue levels / distribution,[3]; various times after ip administration,accumulation through the liver and kidney
same,Solubility Sodium salt,"Solubility; calculated for the acid, unit not printed for this column (neighbour: mg/ml)",>450^6
same,Solubility Water,Solubility; uv of liquid portion of a saturated solution,>454^6 mg/ml
same,Thermal Stability # of products,[4]; 60°,10
same,"Hexa, percent of injected compound (HPLC)",[4]; incubation 5.5 h,2.6%
same,"Hexa, percent of injected compound (HPLC)",[4]; incubation […],9.2%
same,"Hexa, percent of injected compound (HPLC)","[4]; incubation […], 97.4% at 0 h",40.5%
same,Hydration of Na salt,[5],1.31
C#CCN(C)[C@H](C)Cc1ccccc1 [deprenyl],lifespan of treated rats,rats,198+/−2 weeks
same,increase in longevity,Fisher 344 rats [6]; not statistically significant,7%
same,mean survival of treated animals,"Fisher 344 rats [6]; treatment from 18 months of age, controls 28 months",30 months
same,effect on mortality and lifespan,Fisher 344 rats [7],greater mortality and shortened lifespan
same,survival benefit,C57B6 mice [8],failed to show any survival benefit
same,effect on lifespan,Drosophila,did not show an increase in lifespan
